Experimental data from ChEMBL document CHEMBL1201862, “PubChem BioAssay data set” (2004).
Calls of active or inactive are those of the source.

Assays:
[1] = cells
[2] = biological target: T1, Fatty acid synthase (Homo sapiens, UniProt P49327); experiment: inhibition of human FAS-TE enzyme activity – biochemical, kinetic fluorescence intensity, dose response (AID 624326); assay type: functional;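 also: rate of fluorescence rise from hydrolysis of a fluorogenic O-methyl fluorescein ester substrate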
[3] = viability of uninfected HEp-2 cells – cell-based, HTS, cytotoxicity control for RSV inhibitor project, dose response (AID 2410); assay type: functional; conditions: human respiratory syncytial virus
[4] = biological target: Cytochrome P450 2C9 (Homo sapiens, UniProt P11712)
[5] = biological target: T1, Fatty acid synthase; experiment: inhibition of human FAS-TE enzyme activity – biochemical, endpoint fluorescence intensity, uHTS hits, dose response (AID 624327); assay type: functional;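 also: fluorescence from hydrolysis of an O-methyl fluorescein acyl ester substrate by the enzyme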
[6] = test system: Vero; experiment: cells; assay type: functional, cell-based; conditions: Chlorocebus sabaeus
[7] = biological target: T2, DNA repair and recombination protein RAD54-like (Homo sapiens, UniProt Q92698); experiment: RAD54 Holliday junction migration blockers – biochemical, fluorescence, cherry-picked samples, dose series, confirmation (AID 651657); assay type: functional
T2 sequence (Q92698 whole entry): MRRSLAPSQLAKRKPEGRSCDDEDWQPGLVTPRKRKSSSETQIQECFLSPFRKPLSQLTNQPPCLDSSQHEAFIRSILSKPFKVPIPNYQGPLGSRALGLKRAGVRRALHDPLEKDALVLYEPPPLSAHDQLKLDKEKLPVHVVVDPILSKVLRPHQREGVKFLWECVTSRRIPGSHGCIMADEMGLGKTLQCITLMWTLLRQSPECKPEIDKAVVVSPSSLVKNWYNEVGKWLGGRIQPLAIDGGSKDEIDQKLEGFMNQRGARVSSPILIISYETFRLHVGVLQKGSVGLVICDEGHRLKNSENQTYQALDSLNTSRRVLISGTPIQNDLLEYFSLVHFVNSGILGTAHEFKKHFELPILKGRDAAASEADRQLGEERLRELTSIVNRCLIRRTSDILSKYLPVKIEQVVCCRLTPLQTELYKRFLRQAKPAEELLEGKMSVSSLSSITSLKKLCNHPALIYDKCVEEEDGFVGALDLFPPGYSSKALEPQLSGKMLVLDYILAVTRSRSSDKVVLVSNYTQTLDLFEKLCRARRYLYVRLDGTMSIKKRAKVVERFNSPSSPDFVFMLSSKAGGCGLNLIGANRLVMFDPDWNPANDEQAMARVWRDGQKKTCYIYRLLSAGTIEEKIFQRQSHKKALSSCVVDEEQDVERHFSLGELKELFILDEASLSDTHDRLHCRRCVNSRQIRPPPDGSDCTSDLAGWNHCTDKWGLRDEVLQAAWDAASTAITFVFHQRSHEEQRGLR

[8] = Luminescence Cell-Based Dose Response HTS to Identify Activators of Luciferase Translation or Activity in H4 […] Cells. [Related pubchem assays: 1829 (Project Summary), 1814 (Primary HTS)]; assay type: functional
[9] = Trypanosoma cruzi growth suppression in host cells – NIH3T3 host cells, beta-gal luminescence, confirmation (AID 2044); assay type: functional, cell-based;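 also: intracellular parasites grown in NIH/3T3 mouse fibroblasts as host cells; luminescent beta-galactosidase reporter signal from transgenic T. cruzi replicating inside host cells; inhibitors lower the luminescence signal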
[10] = biological target: T3, Short transient receptor potential channel 4 (Mus musculus, UniProt Q9QUQ5); experiment: block of DAMGO-driven TRPC4 calcium entry – cell-based, HEK293 TRPC4/mu-opioid, Fluo-4 calcium, dose response (AID 434942); assay type: functional;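 also: potency of inhibitors blocking the TRPC4 calcium response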
T3 sequence (Q9QUQ5 whole entry): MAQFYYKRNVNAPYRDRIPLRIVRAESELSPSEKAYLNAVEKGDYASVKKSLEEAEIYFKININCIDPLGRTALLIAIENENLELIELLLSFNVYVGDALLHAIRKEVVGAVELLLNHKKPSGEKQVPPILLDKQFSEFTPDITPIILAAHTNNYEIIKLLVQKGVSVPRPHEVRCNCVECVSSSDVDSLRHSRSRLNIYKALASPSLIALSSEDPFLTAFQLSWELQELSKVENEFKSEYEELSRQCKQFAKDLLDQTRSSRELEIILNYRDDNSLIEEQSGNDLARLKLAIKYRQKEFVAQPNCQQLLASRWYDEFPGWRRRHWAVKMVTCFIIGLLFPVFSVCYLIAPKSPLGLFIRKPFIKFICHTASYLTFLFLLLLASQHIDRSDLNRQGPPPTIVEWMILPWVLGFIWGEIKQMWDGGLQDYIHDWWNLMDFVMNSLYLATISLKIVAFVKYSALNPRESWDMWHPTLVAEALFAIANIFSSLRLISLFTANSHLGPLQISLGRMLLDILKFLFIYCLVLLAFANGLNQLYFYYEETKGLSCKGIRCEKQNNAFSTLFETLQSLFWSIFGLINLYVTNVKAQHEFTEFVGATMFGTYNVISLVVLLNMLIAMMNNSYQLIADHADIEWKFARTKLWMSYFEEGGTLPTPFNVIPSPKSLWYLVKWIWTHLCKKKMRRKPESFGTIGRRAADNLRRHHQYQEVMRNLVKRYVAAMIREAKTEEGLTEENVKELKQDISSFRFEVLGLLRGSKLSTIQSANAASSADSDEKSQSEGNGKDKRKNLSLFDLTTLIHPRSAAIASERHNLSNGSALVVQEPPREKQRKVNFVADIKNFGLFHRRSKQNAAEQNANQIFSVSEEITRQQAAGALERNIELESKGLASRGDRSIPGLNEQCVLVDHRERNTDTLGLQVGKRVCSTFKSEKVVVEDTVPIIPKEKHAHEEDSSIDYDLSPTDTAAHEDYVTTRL

[11] = biological target: T4, Bcl-2-like protein 10 (Homo sapiens, UniProt Q9HD36); experiment: Bcl-B/TR3 peptide binding disruption – biochemical, fluorescence polarization, FITC-TR3 peptide, selectivity assay for Bfl-1 inhibitor project, primary screen (AID 748);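 also: fluorescence polarization from a fluorescein-labelled TR3 peptide binding purified Bcl-B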
T4 sequence (Q9HD36 whole entry): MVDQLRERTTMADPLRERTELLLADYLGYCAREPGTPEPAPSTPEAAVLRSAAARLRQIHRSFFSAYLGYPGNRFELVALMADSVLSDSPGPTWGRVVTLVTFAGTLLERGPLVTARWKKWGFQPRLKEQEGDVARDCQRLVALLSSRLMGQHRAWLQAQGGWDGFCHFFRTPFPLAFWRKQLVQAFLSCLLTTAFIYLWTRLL

[12] = NIH3T3 cell viability loss – ATP luminescence, mouse fibroblasts, counter-screen, dose response (AID 2010); assay type: functional, cell-based;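 also: cells exposed to compound for about 90 hours before reading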
[13] = test system: H4; experiment: Luminescence Cell-Based Dose Response HTS to Identify Activators of 5'UTR Stem-Loop Driven Prion Protein mRNA Translation in H4 Neuroglioblastoma Cells. [Related pubchem assays: 1829 (Project Summary), 1814 (Primary HTS)]; assay type: functional; conditions: Homo sapiens
[14] = biological target: T5, DNA repair protein RAD52 homolog (Homo sapiens, UniProt P43351); assay type: functional, biochemical
T5 sequence (P43351 whole entry): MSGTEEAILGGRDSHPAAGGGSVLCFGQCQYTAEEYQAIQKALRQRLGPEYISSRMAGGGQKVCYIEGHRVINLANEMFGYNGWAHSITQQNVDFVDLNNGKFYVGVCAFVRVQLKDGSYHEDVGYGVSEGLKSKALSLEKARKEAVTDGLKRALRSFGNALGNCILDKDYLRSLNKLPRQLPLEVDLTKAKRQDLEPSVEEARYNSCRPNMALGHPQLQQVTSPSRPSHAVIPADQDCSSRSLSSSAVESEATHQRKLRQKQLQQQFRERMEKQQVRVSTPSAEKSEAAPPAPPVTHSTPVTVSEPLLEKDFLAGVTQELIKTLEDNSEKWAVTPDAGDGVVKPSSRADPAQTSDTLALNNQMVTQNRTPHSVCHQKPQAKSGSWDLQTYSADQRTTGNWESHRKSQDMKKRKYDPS

[15] = test system: INS1; experiment: INS-1E survival protection against cytokine death – cell-based, luminescence, retest, dose response (AID 449756); assay type: functional; conditions: Rattus norvegicus, INS1;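 also: cell death triggered by IL-1 beta plus TNF-alpha plus IFN-gamma mixture; protective hits raise ATP signal compared with cytokine alone wells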
[16] = biological target: Large T antigen (Simian virus 40, UniProt P03070); assay type: functional, Betapolyomavirus macacae;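 also: Confirmatory-stage PubChem screen for compounds that inhibit SV40 T antigen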
[17] = Luminescence Cell-Based Dose Confirmation HTS to Identify Activators of 5'UTR Stem-Loop Driven Alpha-Synuclein mRNA Translation in H4 Neuroglioblastoma Cells. [Related pubchem assays: 1829 (Project Summary), 1814 (Primary HTS)]; assay type: functional
[18] = biological target: Luciferin 4-monooxygenase (Photinus pyralis, UniProt P08659); experiment: Counter Screen for Luciferase-based Assay Positives. [Related pubchem assays: 620, 618, 411 ]
[19] = test system: HT-1080; experiment: HT1080 cell viability loss – fluorescence readout (AID 620); assay type: functional, cell-based; conditions: Homo sapiens

T1 sequence (P49327 whole entry): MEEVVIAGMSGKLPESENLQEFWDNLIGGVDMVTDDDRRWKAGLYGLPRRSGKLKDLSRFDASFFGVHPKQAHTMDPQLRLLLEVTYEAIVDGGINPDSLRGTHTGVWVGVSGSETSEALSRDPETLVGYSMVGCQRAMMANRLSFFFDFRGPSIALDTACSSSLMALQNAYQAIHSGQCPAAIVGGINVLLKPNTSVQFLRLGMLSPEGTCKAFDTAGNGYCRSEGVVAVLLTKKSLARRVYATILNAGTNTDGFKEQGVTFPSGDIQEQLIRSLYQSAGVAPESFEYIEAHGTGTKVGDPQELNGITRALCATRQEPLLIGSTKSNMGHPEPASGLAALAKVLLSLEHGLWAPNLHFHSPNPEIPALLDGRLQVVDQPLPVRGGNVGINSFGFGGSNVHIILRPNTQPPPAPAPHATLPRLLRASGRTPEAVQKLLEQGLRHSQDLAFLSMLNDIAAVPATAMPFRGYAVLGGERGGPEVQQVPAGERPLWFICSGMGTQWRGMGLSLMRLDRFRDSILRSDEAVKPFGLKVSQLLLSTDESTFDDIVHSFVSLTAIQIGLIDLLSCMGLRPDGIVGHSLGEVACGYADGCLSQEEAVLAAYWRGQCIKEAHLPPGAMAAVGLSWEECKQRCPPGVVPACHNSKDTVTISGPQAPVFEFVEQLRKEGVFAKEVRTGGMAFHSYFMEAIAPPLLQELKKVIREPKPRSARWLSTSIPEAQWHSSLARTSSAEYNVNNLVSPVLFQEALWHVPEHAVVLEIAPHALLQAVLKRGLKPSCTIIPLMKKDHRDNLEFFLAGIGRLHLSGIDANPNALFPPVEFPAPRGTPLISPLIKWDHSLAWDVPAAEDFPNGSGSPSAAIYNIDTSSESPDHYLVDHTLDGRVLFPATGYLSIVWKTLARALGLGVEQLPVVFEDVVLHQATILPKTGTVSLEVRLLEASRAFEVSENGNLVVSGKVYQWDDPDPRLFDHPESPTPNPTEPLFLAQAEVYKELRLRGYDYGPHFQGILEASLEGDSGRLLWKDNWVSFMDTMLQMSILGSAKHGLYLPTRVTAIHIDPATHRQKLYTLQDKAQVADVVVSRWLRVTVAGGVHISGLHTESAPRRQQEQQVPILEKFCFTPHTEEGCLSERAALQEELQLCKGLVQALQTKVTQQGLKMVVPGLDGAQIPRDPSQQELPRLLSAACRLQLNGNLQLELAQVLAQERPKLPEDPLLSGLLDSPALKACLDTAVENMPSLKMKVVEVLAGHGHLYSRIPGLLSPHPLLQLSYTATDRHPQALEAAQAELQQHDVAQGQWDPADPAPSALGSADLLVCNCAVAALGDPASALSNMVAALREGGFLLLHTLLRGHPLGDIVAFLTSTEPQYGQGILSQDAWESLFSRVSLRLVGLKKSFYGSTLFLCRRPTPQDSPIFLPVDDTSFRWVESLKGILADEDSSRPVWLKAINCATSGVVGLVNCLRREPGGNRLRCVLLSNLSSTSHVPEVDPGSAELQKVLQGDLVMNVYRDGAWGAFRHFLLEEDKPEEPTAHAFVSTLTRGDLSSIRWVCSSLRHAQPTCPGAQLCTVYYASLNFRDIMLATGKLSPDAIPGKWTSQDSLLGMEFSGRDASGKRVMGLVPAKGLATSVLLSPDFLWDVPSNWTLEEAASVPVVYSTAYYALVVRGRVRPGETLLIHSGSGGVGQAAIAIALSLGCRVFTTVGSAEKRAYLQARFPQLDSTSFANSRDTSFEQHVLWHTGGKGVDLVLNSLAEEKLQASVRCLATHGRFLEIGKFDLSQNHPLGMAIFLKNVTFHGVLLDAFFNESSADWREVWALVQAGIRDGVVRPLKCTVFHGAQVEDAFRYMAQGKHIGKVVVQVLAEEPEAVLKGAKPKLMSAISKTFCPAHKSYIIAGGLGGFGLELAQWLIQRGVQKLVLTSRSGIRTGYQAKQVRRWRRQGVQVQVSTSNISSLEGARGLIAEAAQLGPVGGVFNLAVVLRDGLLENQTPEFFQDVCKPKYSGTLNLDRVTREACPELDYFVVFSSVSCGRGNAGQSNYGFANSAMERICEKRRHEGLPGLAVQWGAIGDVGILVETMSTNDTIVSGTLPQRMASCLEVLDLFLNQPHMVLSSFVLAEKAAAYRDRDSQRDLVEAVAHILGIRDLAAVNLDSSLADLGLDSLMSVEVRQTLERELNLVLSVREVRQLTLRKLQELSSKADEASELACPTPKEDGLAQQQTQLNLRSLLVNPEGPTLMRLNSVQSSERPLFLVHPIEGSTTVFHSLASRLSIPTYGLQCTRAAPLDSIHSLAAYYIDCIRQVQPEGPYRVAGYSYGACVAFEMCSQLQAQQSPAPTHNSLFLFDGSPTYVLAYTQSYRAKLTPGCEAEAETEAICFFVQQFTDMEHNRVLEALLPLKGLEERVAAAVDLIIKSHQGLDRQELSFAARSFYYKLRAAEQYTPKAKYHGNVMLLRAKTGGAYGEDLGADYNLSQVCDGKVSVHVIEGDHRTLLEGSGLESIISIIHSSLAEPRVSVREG
Chain of Large T antigen (P03070 whole entry): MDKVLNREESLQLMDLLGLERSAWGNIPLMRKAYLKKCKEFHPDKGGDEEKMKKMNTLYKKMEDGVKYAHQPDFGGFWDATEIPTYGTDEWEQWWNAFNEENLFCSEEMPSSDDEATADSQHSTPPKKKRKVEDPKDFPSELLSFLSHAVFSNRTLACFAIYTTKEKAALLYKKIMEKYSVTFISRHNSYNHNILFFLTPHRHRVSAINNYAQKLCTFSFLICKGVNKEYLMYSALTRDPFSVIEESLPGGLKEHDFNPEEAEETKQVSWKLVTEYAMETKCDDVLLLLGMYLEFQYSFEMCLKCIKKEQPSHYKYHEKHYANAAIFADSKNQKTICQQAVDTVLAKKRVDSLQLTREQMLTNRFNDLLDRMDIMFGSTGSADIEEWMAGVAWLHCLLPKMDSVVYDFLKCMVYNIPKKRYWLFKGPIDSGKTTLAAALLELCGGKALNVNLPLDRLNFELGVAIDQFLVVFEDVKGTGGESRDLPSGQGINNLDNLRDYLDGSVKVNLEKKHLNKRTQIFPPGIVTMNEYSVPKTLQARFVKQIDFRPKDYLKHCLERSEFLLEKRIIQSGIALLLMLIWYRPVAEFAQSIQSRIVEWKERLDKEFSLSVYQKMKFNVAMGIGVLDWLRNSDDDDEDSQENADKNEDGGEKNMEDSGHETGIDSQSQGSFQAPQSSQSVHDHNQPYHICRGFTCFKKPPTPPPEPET
Chain of Luciferin 4-monooxygenase (P08659 whole entry): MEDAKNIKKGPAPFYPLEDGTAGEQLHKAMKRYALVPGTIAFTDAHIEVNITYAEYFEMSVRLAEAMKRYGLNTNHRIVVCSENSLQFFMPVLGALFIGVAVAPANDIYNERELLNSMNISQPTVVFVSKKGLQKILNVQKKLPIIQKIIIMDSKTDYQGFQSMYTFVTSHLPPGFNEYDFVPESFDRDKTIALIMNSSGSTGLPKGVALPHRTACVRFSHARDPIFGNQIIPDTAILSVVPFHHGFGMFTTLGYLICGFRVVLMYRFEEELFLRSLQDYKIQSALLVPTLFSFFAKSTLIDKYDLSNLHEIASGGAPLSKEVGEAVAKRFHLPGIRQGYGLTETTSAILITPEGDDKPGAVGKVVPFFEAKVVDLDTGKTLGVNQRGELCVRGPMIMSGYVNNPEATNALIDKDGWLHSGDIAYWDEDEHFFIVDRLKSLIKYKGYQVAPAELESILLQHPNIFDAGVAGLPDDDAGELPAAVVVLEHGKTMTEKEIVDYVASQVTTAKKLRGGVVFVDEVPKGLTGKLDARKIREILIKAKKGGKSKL
Chain of Cytochrome P450 2C9 (P11712 whole entry): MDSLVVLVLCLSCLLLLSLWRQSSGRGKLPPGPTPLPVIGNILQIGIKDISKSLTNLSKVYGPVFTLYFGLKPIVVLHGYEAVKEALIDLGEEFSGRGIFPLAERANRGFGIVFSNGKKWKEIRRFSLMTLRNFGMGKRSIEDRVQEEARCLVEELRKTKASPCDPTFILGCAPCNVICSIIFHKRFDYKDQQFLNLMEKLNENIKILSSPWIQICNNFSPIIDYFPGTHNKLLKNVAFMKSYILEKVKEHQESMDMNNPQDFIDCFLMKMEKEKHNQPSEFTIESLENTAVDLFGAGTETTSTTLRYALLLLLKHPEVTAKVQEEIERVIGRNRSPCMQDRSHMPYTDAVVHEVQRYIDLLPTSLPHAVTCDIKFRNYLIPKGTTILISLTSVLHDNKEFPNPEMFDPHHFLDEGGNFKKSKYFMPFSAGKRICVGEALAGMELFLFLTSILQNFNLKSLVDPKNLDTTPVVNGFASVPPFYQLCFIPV

Row | SMILES | IC50 [1] | IC50 [2] | CC50 [3] | AC50 [4] | IC50 [5] | IC50 [6] | AC50 [7] | EC50 [8] | EC50 [9] | EC50 [10] | IC50 [11] | EC50 [12] | EC50 [13] | AC50 [14] | AC50 [15] | IC50 [16] | EC50 [17] | EC50 [18] | EC50 [19]
1 | Cc1ccc2cc3cc(C(=O)N4CCCCC4C)oc3nc2c1 (stereo unspecified) | 21.4 µM (active) | 4.44 µM (active) | > 50 µM (active) | inconclusive | 2.28 µM (active) | – | – | – | – | – | – | – | – | – | – | – | – | – | –
2 | Cc1ccc(C(=O)Nc2ccccc2SCC2CSc3nc4ccccc4c(=O)n32)cc1 (stereo unspecified) | 11.4 µM (active) | – | 27.7 µM (active) | – | – | 10.4 µM (active) | – | – | – | – | – | – | – | – | – | – | – | – | –
3 | Oc1ccc(Nc2nc(N3CCCC3)c3ccccc3n2)cc1 | – | – | – | – | – | – | 6.91 µM (active) | 12.9 µM (active) | 2.11 µM (active) | 5.96 µM (active) | 43.9 µM (active) | 9.1 µM (active) | > 120 µM (not active) | 13.3 µM (active) | 7.85 µM (active) | 4.72 µM (active) | > 120 µM (not active) | < 200 nM (active) | 25.7 µM (active)
